How the values were obtained:
Arthus foot edema = Arthus foot edema (paw edema in rats); assay type: in vivo, Male Sprague-Dawley rats; conditions: rat, oral, 100 mg/kg, 60 minutes before phlogogen; edema volume 3 hours after egg albumin i.v./anti egg albumin antiserum subplantar
Description: TEST B (Arthus foot edema)
Five male Sprague-Dawley rats weighing about 200 g were used per group.
Paw edema was induced by intravenous injection of egg albumin (0.5 mg/rat) and subplantar injection of anti egg albumin antiserum (0.1 ml/rat) in Arthus type foot edema. The test drug was suspended in methylcellulose and administered orally 60 minutes before phlogogen. Paw volume was measured with plethysmometer (Ugo Basil Co., Ltd.) by water displacement immersing the paw to the lateral malleolus. The difference of paw volume before and 3 hours after the phlogogen was designated as edema volume. The data were analyzed statistically by student's t-test.

Carrageenin foot edema = Carrageenin foot edema (paw edema in rats); assay type: in vivo, Male Sprague-Dawley rats; conditions: rat, oral, 10.0 mg/kg, 60 minutes before phlogogen; edema volume 3 hours after 1% carrageenin
Description: TEST A (Carrageenin foot edema)
Male Sprague-Dawley rats weighing about 200 g were used in groups of five. Paw edema was induced by subplantar injection of 1% carrageenin (0.1 ml/rat) into the right hind paw. The test drug was suspended in 0.5% methylcellulose and administered orally 60 minutes before phlogogen. Paw volume was measured with plethysmometer (Ugo Basil Co., Ltd.) by water displacement immersing the paw to the lateral malleolus. The difference of paw volume before and 3 hours after the phlogogen was designated as edema volume. The data was analyzed statistically by student's t-test.

Q: Which “Inhibition (%)” value (Arthus foot edema) does the source give for CN1C(C(=O)Nc2ccc(O)c(=O)cc2)=C(O)c2sccc2S1(=O)=O [4-Hydroxy-2-methyl-N-(2-hydroxy-1-oxo-2,4,6-cycloheptatrien-5-yl)-2H-thieno[2,3-e]-1,2-thiazine-3-carboxamide 1,1-dioxide] here?
A: The value was 37.8%.

Q: Which “Inhibition (%)” value (Carrageenin foot edema) does the source give for CN1C(C(=O)Nc2cccccc2=O)=C(O)c2sccc2S1(=O)=O [(a), 4-Hydroxy-2-methyl-N-(1-oxo-2,4,6-cycloheptatrien-2-yl)-2H-thieno[2,3-e]-1,2-thiazine-3-carboxamide 1,1-dioxide] here?
A: Its value is 63.6%.

Q: How did the “Inhibition (%)” value (Carrageenin foot edema) turn out when CN1C(C(=O)Nc2cccccc2=O)=C(O)c2sc3ccccc3c2S1(=O)=O [(b), 4-Hydroxy-2-methyl-N-(1-oxo-2,4,6-cycloheptatrien-2-yl)-2H-[1]benzothieno[2,3-e]-1,2-thiazine-3-carboxamide 1,1-dioxide] was run?
A: Its value is 34%.

Reference: patent publication US4563453A, “Thiazine derivatives, processes for preparation thereof and pharmaceutical composition comprising the same” (Fujisawa Pharmaceutical Co., Ltd., priority 1983, dated 1986)
